# Laboratory results published in patent US6413733B1, “Stabilized reagent and method for determining creatine kinase” (Roche Diagnostics GmbH, priority 1997, dated 2002).
# Tested on: G6P-DH
# Assay: Long-term stability G6P-DH, 10 mmol/l DTT compared to 1 mmol/l Na2SO3
# Assay type: biochemical
# Conditions: 10 mmol/l DTT, example 3
# Method: For the determination 250 μl R1 is mixed with 10 μl sample, incubated for 5 minutes, the reaction is started with 50 μl R2 and the CK activity is measured after incubating for a further 1 minute. The CK or G6P-DH enzyme activity was determined after storage at 2 to 8° C. or 35° C. for various periods (table 1-3,FIGS. 1-3).
# The reagent R was combined with the sample to be measured as described in example 1 and the corresponding enzyme activities were determined (table 5,FIG. 5).
structure (smiles),measurement,setting,value
"O[C@H](CS)[C@H](O)CS (racemic) [DTT, dithiothreitol, reference compound]",G6P-DH activity,0 days at 2 to 8° C.,4.67 U/ml
same,G6P-DH activity relative to day 0,0 days at 2 to 8° C.,100.0%
same,G6P-DH activity,55 days at 2 to 8° C.,2.81 U/ml
same,G6P-DH activity relative to day 0,55 days at 2 to 8° C.,60.2%
same,G6P-DH activity,85 days at 2 to 8° C.,2.69 U/ml
same,G6P-DH activity relative to day 0,85 days at 2 to 8° C.,57.6%
same,G6P-DH activity,114 days at 2 to 8° C.,2.07 U/ml
same,G6P-DH activity relative to day 0,114 days at 2 to 8° C.,44.4%
same,G6P-DH activity,136 days at 2 to 8° C.,1.55 U/ml
same,G6P-DH activity relative to day 0,136 days at 2 to 8° C.,33.1%
same,G6P-DH activity,192 days at 2 to 8° C.,0.52 U/ml
same,G6P-DH activity relative to day 0,192 days at 2 to 8° C.,11.1%
same,G6P-DH activity,220 days at 2 to 8° C.,0.29 U/ml
same,G6P-DH activity relative to day 0,220 days at 2 to 8° C.,6.2%
